Publication PMC6882823, “Partitioning of amino acids and proteins into decanol using phase transfer agents towards understanding life in non-polar liquids” (Scientific Reports, 2019)

Tests used:
[1] = parameters: method as in PMID 7108955; conditions: amino acid residue; positive scores = higher hydrophobicity; cited from earlier work
[2] = Water/decanol phase partitioning with or without phase transfer agents; type: physicochemical
Procedure: Biomolecules were dissolved in ultrapure water (Millipore EMD, USA), containing decylsulfate and/or DDAB when noted. […] Final concentrations of phase transfer agents (PTAs) and amino acids were generally 10 mM unless noted otherwise for specific experiments. Proteins were generally diluted until their 280 nm absorbance was less than or equal to 1 AU.
(§1) Equal volumes of water phase (containing the biomolecule and PTA, if added) and decanol were mixed, vortexed for 30 s, then centrifuged for 3 minutes with a mini centrifuge. These samples were prepared in triplicate. Both decanol and aqueous phase were analyzed for biomolecules. Phenylalanine and proteins were analyzed using UV-vis (Hewlett-Packard 8453).
(§2) HPLC was performed with Cosmosil HILiC column (2.5 µm particle size, 3 × 100 mm; Nacalai USA) at 30 °C with a 1.0 mL/min flow rate, and isocratic elution of 25% 20 mM ammonium acetate, pH 7.5 and 75% acetonitrile (Optima, LC-MS purity, Fisher Scientific). Injection volume was 10 µL. For mass spectra collection, HESI heater temp was 50 °C, with a 4.5 kV spray, and 250 °C capillary temperature in positive ion mode.

[3] = Potassium ion binding of valinomycin in the decanol phase; conditions: decanol phase after partitioning against 100 mM KCl
Procedure: Ultra-pure Millipore grade (18.2 MΩ) water, 100 mM KCl or 100 mM AuCl were tested as aqueous phases. In all samples all of the valinomycin was found in the decanol phase (see SI for additional details).
as §1, §2

NCC(=O)O [glycine, Glycine]
Hydrophathy (hydropathy score of residue type) [1]: −0.4

N[C@@H](Cc1ccccc1)C(=O)O [phenylalanine, Phenylalanine]
phenylalanine partitioning into decanol, 1:1 PTA to phenylalanine, pH 7 ([2]; water/decanol, 10 mM phenylalanine, 1:1 ratio of PTA (DS and DDAB 1:1), pH 7 zwitterionic, UV-vis, n = 3): 15% | phenylalanine entering the decanol phase, 1:10 PTA to phenylalanine ([2]; water/decanol, 10 mM phenylalanine, 1:10 ratio of PTA, all pHs (1.5 DS; 7.0 DS and DDAB; 10.0 DDAB), UV-vis, n = 3): about 10% | Hydrophathy (hydropathy score of residue type) [1]: 2.8

Tpol: Taq DNA polymerase, UniProt P19821
Tpol entering the decanol phase ([2]; water/decanol, no PTA or 5 mM of both DDAB and DS, UV-vis): About 10%

valinomycin [reference compound]
ability to bind potassium ions [3]: appeared to retain its biological ability to bind to potassium ions | valinomycin found in the decanol phase ([2]; water/decanol, without PTAs, aqueous phase ultra-pure water, 100 mM KCl or 100 mM AuCl, LC-MS and UV 210 nm, three independent partitionings): all

N[C@@H](CCC(=O)O)C(=O)O [glutamic acid]
Hydrophathy (hydropathy score of residue type) [1]: −3.5

B1: Bacteriorhodopsin: a membrane protein, soluble only in amphiphilic systems (protein, UniProt P02945 14-262, looked up)
Bacteriorhodopsin: QAQITGRPEWIWLALGTALMGLGTLYFLVKGMGVSDPDAKKFYAITTLVPAIAFTMYLSMLLGYGLTMVPFGGEQNPIYWARYADWLFTTPLLLLDLALLVDADQGTILALVGADGIMIGTGLVGALTKVYSYRFVWWAISTAAMLYILYVLFFGFTSKAESMRPEVASTFKVLRNVTVVLWSAYPVVWLIGSEGAGIVPLNIETLLFMVLDVSAKVGFGLILLRSRAIFGEAEAPEPSAGDGAAATSD
behaviour of bacteriorhodopsin in partitioning experiments ([2]; water/decanol with DS and DDAB added, visual): aggregated at the interface between the water and oil phase | solubility in water and decanol phases ([2]; without PTAs, appearing as crystals): insoluble in both the water and decanol phases
